Laboratory results reported in patent US9975868B2, “7,8-dihydoxyflavone and 7,8-substituted flavone derivatives, compositions, and methods related thereto” (EMORY UNIVERSITY, priority 2012, dated 2018).
Entries after “also recorded” stand apart in the source; their conditions may differ. Each block holds one compound with its values, some of them ahead of it.

Experiments:
[1] = in vivo PK study, plasma 7,8-DHF after oral administration; set-up: species or system mice
Experimental: Two months old mice were orally administrated 78 mg/kg of the R7, and mice were sacrificed at different time points (n=3), the plasma was then harvested and analyzed by HPLC/MS.
Derivatives with various moieties on the catechol group in 7,8-DHF were synthesized. These derivatives were monitored for intestine microsomal stability, liver microsomal stability and plasma stability.

[2] = brain 7,8-DHF concentration after oral administration; type: in vivo, mice
[3] = system: mouse model of Alzheimer's disease; conditions: cited from earlier work
[4] = chemical stability in pH 1.2 and 7.4 buffer; type: physicochemical
Experimental: Metabolism studies indicate that the catechol group is conjugated by glucuronidation, sulfation and methylation in liver, which leads to the poor oral bioavailability upon oral administration. […] Most of 7,8-DHF is conjugated and metabolized within 30 min. Derivatives with various moieties on the catechol group in 7,8-DHF were synthesized. These derivatives were monitored for intestine microsomal stability, liver microsomal stability and plasma stability. In addition, compounds with favorable chemical stability and Caco-2 permeability were examined.
R7 and R13 were chosen to analyze their in vivo PK profiles. The concentration of 7,8-DHF's in brain was examined at different time points after oral administrated 72.5 mg/kg, which is the molecular equivalent of 50 mg/kg of 7,8-DHF. In plasma, 7,8-DHF peaked at around 100 min for R13, whereas administration of the parent compound 7,8-DHF, occurred at 10 min. The oral bioavailability of R13 was around 10%.

TrkB = target: T1, TrkB (Mus musculus, UniProt P15209); test: TrkB signaling in mouse brain by immunoblotting after oral administration; type: in vivo; conditions: R7 78 mg/kg oral
T1 construct: from tissue; host or cells: mouse brain (lysates after oral dosing)
T1 sequence (P15209 32-821): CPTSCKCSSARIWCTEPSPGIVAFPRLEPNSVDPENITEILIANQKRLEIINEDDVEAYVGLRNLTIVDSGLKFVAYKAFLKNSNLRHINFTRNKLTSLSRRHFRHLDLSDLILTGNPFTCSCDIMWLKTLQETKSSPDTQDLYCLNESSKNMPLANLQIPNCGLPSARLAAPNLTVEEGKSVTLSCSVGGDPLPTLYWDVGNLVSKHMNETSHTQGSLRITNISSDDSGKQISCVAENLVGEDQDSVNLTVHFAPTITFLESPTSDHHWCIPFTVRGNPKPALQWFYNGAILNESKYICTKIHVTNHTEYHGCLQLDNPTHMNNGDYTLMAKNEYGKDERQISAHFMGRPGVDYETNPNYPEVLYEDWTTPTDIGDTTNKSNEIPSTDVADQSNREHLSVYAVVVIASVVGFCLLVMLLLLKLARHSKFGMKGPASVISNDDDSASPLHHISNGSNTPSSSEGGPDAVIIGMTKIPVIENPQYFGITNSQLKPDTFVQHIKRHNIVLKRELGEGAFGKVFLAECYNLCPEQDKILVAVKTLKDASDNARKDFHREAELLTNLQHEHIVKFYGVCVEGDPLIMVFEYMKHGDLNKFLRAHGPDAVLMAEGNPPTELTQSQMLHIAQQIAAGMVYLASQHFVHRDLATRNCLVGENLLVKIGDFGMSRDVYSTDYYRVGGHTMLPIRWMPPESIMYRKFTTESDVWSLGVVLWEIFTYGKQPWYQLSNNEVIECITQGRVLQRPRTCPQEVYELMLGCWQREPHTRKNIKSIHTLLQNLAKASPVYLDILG
Experimental: R7 (78 mg/kg equal to about 50 mg/kg of 7,8-DHF) was administered orally. The mice were sacrificed at different intervals. The brain lysates were analyzed by immunobotting with various antibodies including p-TrkB 816, Total TrkB, p-Akt and total Akt.
The TrkB signaling in mouse brains was monitored from the in vivo PK study. […] The pharmacodynamic (PD) study fits well with the in vivo PK data, underscoring that the released 7,8-DHF from R7 triggers the long-lasting TrkB signalings in mouse brain.

time within which most is conjugated and metabolized ([1]; C57BL6, mouse, in vivo): ≤ 30 min
bioavailability ([1]; C57BL6, mouse, in vivo, po): ~5%
7,8-DHF detectability in brain ([2]; oral administration of parent compound): not detectable after 4 h
SMILES: O=c1cc(-c2ccccc2)oc2c(O)c(O)ccc12 [7,8-DHF, 7,8-dihydroxyflavone, reference compound]
memory deficits and BACE1 elevation [3]: reverses

SMILES: CN(C)C(=O)Oc1ccc2c(=O)cc(-c3ccccc3)oc2c1OC(=O)N(C)C [R7, 4-oxo-2-phenyl-4H-chromene-7,8-diyl bis(dimethylcarbamate)]
7,8-DHF plasma concentrations compared with parent compound ([1]; R7 78 mg/kg vs 7,8-DHF 50 mg/kg P.O.): higher than parent compound
7,8-DHF detectable in plasma ([1]; at 8 h after oral R7): detectable
chemical stability in buffer ([4]; pH 1.2): stable
chemical stability in buffer ([4]; pH 7.4): stable
TrkB activation (p-TrkB) in mouse brain (TrkB): potently activated; also recorded: triggers TrkB activation
downstream p-Akt signaling activation in mouse brain (TrkB): potently activated; also recorded: downstream Akt signaling activation

SMILES: CNC(=O)Oc1ccc2c(=O)cc(-c3ccccc3)oc2c1OC(=O)NC [R13, 4-oxo-2-phenyl-4H-chromene-7,8-diyl bis(methylcarbamate)]
7,8-DHF oral bioavailability and brain concentrations versus parent compound ([2]; FIG. 4, oral administration): improves
7,8-DHF brain availability ([2]; oral 72.5 mg/kg): significantly elongated
